# Measured values as given in ChEMBL document CHEMBL1795340, “A discovery of novel Mycobacterium tuberculosis pantothenate synthetase inhibitors based on the molecular mechanism of actinomycin D inhibition” (Bioorg Med Chem Lett, 2011).
# Key:
# [1] = test system: Mycobacterium tuberculosis; test: Antimycobacterial activity against drug-resistant Mycobacterium tuberculosis clinical isolate; type: functional
# [2] = test system: Mycobacterium tuberculosis; test: Antimycobacterial activity against rifampin and isoniazid-resistant Mycobacterium tuberculosis; type: functional
smiles,measurement,setting,value
COC(=O)c1cc2c(OCc3ccccc3)cc(N)cc2[nH]1,MIC,[1],54 µM
same,MIC,[2],54 µM
